The record followed here is patent US10526295B2, “Nuclear transport modulators and uses thereof” (Karyopharm Therapeutics Inc., priority 2015, dated 2020).

What all share (type): cell-based
For one test, the system named is 3T3 cells. As to the kind of experiment: MTT cell proliferation assay (3T3). The note with it: Mus musculus, NIH3T3; 3T3 fibroblast cells; approximately 64-72 hours incubation; 1 nM to 30 μM. Here is the method:
(§1) The MTT cell proliferation assay was used to study the cytotoxic properties of the compounds. The assay was performed according to the method described by Roche Molecular Biochemicals, with minor modifications. The assay is based on the cleavage of the tetrazolium salt, MTT, in the presence of an electron-coupling reagent. The water-insoluble formazan salt produced must be solubilized in an additional step. Cells grown in a 96-well tissue culture plate were incubated with the MTT solution for approximately 4 hours. After this incubation period, a water-insoluble formazan dye formed. After solubilization, the formazan dye was quantitated using a scanning multi-well spectrophotometer (ELISA reader). […] The cells were seeded at 5,000-10,000 cells in each well of 96-well plate in 100 μL of fresh culture medium and were allowed to attach overnight. The stock solutions of the compounds were diluted in 100 μL cell culture medium to obtain eight concentrations of each test compound, ranging from 1 nM to 30 μM. […] All optical densities were measured at 490 nm using a Vmax Kinetic Microplate Reader (Molecular Devices). In most cases, the assay was performed in duplicate and the results were presented as a mean percent inhibition to the negative control±SE. The following formula was used to calculate the percent of inhibition: Inhibition (%)=(1−(ODo/OD))×100.
(§2) The compounds were tested against Z138, MM1S and 3T3 cells. The Z138 cell line is a mature B-cell acute lymphoblastic leukemia cell line derived from a patient with chronic lumphocytic leukemia. The MM1S cell line was established from the peripheral blood of a human multiple myeloma patient. 3T3 cells are standard fibroblast cells; they were originally isolated from Swiss mouse embryo tissue.
In general terms: Tetrazolium assays rely on reduction of a dye to a coloured formazan, in cell work by metabolically active cells.

The subject of a further test is Z138 cells. Nature of the test: MTT cell proliferation assay (Z138). To be noted: Homo sapiens, Z-138, approximately 64-72 hours incubation, 1 nM to 30 μM. Here is the method:
as §1, §2

A further test has as its system MM1S cells. As to the kind of experiment: MTT cell proliferation assay (MM1S). To be noted: Homo sapiens, MM1.S; MM1S multiple myeloma cells; approximately 64-72 hours incubation; 1 nM to 30 μM. The method, then: as §1, §2

`NC(=O)/C(=C/n1cnc(-c2cc(C(F)(F)F)cc(C(F)(F)F)c2)n1)c1cccc(S(=O)(=O)N2CC(F)C2)c1` [Compound 123, (E)-3-(3-(3,5-bis(trifluoromethyl)phenyl)-1H-1,2,4-triazol-1-yl)-2-(3-(3-fluoroazetidin-1-ylsulfonyl)phenyl)acrylamide]: the IC50 in the test with 3T3 cells is above 30 µM; in the test with Z138 cells, 0.1 to 5 µM; in the test on MM1S cells, 0.1 to 5 µM.
Turning to `NC(=O)/C(=C/n1cnc(-c2cc(C(F)(F)F)cc(C(F)(F)F)c2)n1)c1ccc(S(=O)(=O)N2CCC(C(F)(F)F)CC2)cc1` [Compound 106, (E)-3-(3-(3,5-bis(trifluoromethyl)phenyl)-1H-1,2,4-triazol-1-yl)-2-(4-(4-(trifluoromethyl)piperidin-1-ylsulfonyl)phenyl)acrylamide], the half-inhibitory concentration (IC50) in the test with 3T3 cells is above 30 µM; in the test with Z138 cells, 0.1 to 5 µM; in the test on MM1S cells, 0.1 to 5 µM.
On to `NC(=O)/C(=C/n1cnc(-c2cc(C(F)(F)F)cc(C(F)(F)F)c2)n1)c1ccc(S(=O)(=O)N2CCC(F)(F)C2)cc1` [Compound 113, (E)-3-(3-(3,5-bis(trifluoromethyl)phenyl)-1H-1,2,4-triazol-1-yl)-2-(4-(3,3-difluoropyrrolidin-1-ylsulfonyl)phenyl)acrylamide], for which the IC50 in the test with 3T3 cells, in the test on Z138 cells and in the test with MM1S cells was below 0.1 µM in each case.
For `NC(=O)/C(=C/n1cnc(-c2cc(C(F)(F)F)cc(C(F)(F)F)c2)n1)c1cccc(S(=O)(=O)N2CCC(F)(F)CC2)c1` [Compound 122, (E)-3-(3-(3,5-bis(trifluoromethyl)phenyl)-1H-1,2,4-triazol-1-yl)-2-(3-(4,4-difluoropiperidin-1-ylsulfonyl)phenyl)acrylamide], the IC50 was above 30 µM in the test on 3T3 cells, 0.1 to 5 µM in the test with Z138 cells and 0.1 to 5 µM with MM1S cells.
As to `NC(=O)/C(=C/n1cnc(-c2cc(C(F)(F)F)cc(C(F)(F)F)c2)n1)c1ccc(S(=O)(=O)N2CCCC2)cc1` [Compound 112, (E)-3-(3-(3,5-bis(trifluoromethyl)phenyl)-1H-1,2,4-triazol-1-yl)-2-(4-(pyrrolidin-1-ylsulfonyl)phenyl)acrylamide], the IC50 with 3T3 cells was 0.1 to 5 µM; with Z138 cells, below 0.1 µM; in the test on MM1S cells it was below 0.1 µM.
`CN1CCN(S(=O)(=O)c2ccc(/C(=C\n3cnc(-c4cc(C(F)(F)F)cc(C(F)(F)F)c4)n3)C(N)=O)cc2)CC1` [Compound 115, (E)-3-(3-(3,5-bis(trifluoromethyl)phenyl)-1H-1,2,4-triazol-1-yl)-2-(4-(4-methylpiperazin-1-ylsulfonyl)phenyl)acrylamide]: the 50% inhibitory concentration (IC50) in the test with 3T3 cells, in the test on Z138 cells and with MM1S cells was 0.1 to 5 µM each time.
In the case of `NC(=O)/C(=C/n1cnc(-c2cc(C(F)(F)F)cc(C(F)(F)F)c2)n1)c1cccc(S(=O)(=O)N2CCOCC2)c1` [Compound 119, (E)-3-(3-(3,5-bis(trifluoromethyl)phenyl)-1H-1,2,4-triazol-1-yl)-2-(3-(morpholinosulfonyl)phenyl)acrylamide], the IC50 in the test with 3T3 cells was above 30 µM; in the test with Z138 cells, 0.1 to 5 µM; in the test on MM1S cells, 0.1 to 5 µM.
Turning to `NC(=O)/C(=C/n1cnc(-c2cc(C(F)(F)F)cc(C(F)(F)F)c2)n1)c1ccc(S(=O)(=O)N2CCCOCC2)cc1` [Compound 118, (E)-2-(4-(1,4-oxazepan-4-ylsulfonyl)phenyl)-3-(3-(3,5-bis(trifluoromethyl)phenyl)-1H-1,2,4-triazol-1-yl)acrylamide], the IC50 in the test with 3T3 cells was 0.1 to 5 µM; in the test on Z138 cells, below 0.1 µM; in the test on MM1S cells, below 0.1 µM.
In the case of `NC(=O)/C(=C/n1cnc(-c2cc(C(F)(F)F)cc(C(F)(F)F)c2)n1)c1cccc(S(=O)(=O)N2CCC2)c1` [Compound 127, (E)-2-(3-(azetidin-1-ylsulfonyl)phenyl)-3-(3-(3,5-bis(trifluoromethyl)phenyl)-1H-1,2,4-triazol-1-yl)acrylamide], the IC50 with 3T3 cells, in the test with Z138 cells and in the test on MM1S cells was 0.1 to 5 µM throughout.

One may read the IC50 as the concentration that inhibits the measured activity by half. A higher IC50 goes with lower potency.
